Results on 11 molecules are retold here after PubChem BioAssay (NCI).

Test systems include 786-0 renal; HCT-15 colon; HOP-62 NSCLC; OVCAR-3 ovarian; M14 melanoma; UO-31 renal; SNB-75 CNS; HCT-116 colon; SK-MEL-28 melanoma; NCI/ADR-RES ovarian.
Experiment in all cases: DTP human tumour cell line panel, 48 h

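48-hour exposure; five concentrations; linearly interpolated endpoints. GI50 = concentration required for 50% inhibition of growth. TGI is the concentration that stops growth completely.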

By TGI is commonly meant the concentration at which net growth stops. Higher therefore signals less potent growth arrest. With `CC1=C(c2cc(C(=O)Nc3cccc(C(F)(F)F)c3)ncn2)Sc2ccccc2N1`, the TGI in the assay on 786-0 renal, with HCT-15 colon, in the assay with HOP-62 NSCLC, in the assay on OVCAR-3 ovarian, in the assay on M14 melanoma and in the assay with UO-31 renal was above 100 µM each time. In addition, the TGI in the assay with SNB-75 CNS, in the assay on HCT-116 colon and in the assay with SK-MEL-28 melanoma was above 100 µM in each case.

Take `Cc1cc(C)c(S(=O)(=O)ONC(=O)OC(C)(C)C)c(C)c1`: the TGI in the assay with 786-0 renal, with HCT-15 colon, with HOP-62 NSCLC, with OVCAR-3 ovarian, in the assay on M14 melanoma and with UO-31 renal was above 100 µM throughout. Moreover, the TGI in the assay with SNB-75 CNS, with HCT-116 colon and with SK-MEL-28 melanoma was above 100 µM in each case.

In the case of `O=C(NO)C(=O)Nc1ccc(Cl)cc1[N+](=O)[O-]`, the TGI in the assay on 786-0 renal, with HCT-15 colon, in the assay on HOP-62 NSCLC, in the assay on OVCAR-3 ovarian, in the assay with M14 melanoma and in the assay on UO-31 renal was above 100 µM throughout. In addition, the TGI in the assay with SNB-75 CNS, with HCT-116 colon and in the assay on SK-MEL-28 melanoma was above 100 µM throughout.

Usually GI50 stands for the concentration at which growth is held to half of that of the control. For `CC(=O)[O-].O=C([CH-]C(=O)c1ccccc1)c1ccccc1.O=C([CH-]C(=O)c1ccccc1)c1ccccc1.[Y+3]`, the GI50 in the assay with 786-0 renal was 3.9 µM; in the assay on HCT-15 colon, 5.45 µM; in the assay on HOP-62 NSCLC, 2.31 µM; in the assay on OVCAR-3 ovarian, 3.12 µM; in the assay with M14 melanoma, 5.34 µM; in the assay with UO-31 renal, 3.84 µM. Further, the GI50 with SNB-75 CNS was 3.1 µM; with HCT-116 colon, 4.97 µM; with SK-MEL-28 melanoma it was 8.34 µM. For the same molecule, the TGI with 786-0 renal was determined as 18 µM; in the assay with HCT-15 colon, 26.7 µM; in the assay with HOP-62 NSCLC it was 13.4 µM; in the assay with OVCAR-3 ovarian it was 15.8 µM; with M14 melanoma, 18.9 µM; in the assay on UO-31 renal, 9.66 µM. In addition, the TGI in the assay with SNB-75 CNS is 7.42 µM; with HCT-116 colon it was 19.3 µM; in the assay with SK-MEL-28 melanoma it was 39 µM.

On to `CCOC(=O)Nc1ccc(-c2nc(-c3cccc(OC)c3)c(-c3ccnc(Br)c3)[nH]2)cc1`, for which the GI50 was 2.16 µM in the assay with 786-0 renal; 1.68 µM with HCT-15 colon; 2.82 µM in the assay with OVCAR-3 ovarian; 2.4 µM with M14 melanoma; 2.35 µM with NCI/ADR-RES ovarian; 2.19 µM in the assay on UO-31 renal. In addition, the values for the GI50 in the assay on SNB-75 CNS and with SK-MEL-28 melanoma were 2.14 µM and 2.8 µM, respectively. The TGI is above 100 µM with 786-0 renal; 5.45 µM in the assay with HCT-15 colon; 8.44 µM in the assay on OVCAR-3 ovarian; 7.5 µM in the assay with M14 melanoma; 7.73 µM in the assay with NCI/ADR-RES ovarian; 7.75 µM in the assay on UO-31 renal. The TGI with SNB-75 CNS and with SK-MEL-28 melanoma was above 100 µM in each case.

With `COC12CC(=O)C(C(C)=O)=C(O)C1(C)c1c(OC(C)=O)c(C)c(O)c(C(C)=O)c1O2` (stereo not drawn), the TGI is above 100 µM with 786-0 renal; above 100 µM with HCT-15 colon; 95.8 µM in the assay on HOP-62 NSCLC; 69.9 µM with OVCAR-3 ovarian; above 100 µM in the assay with M14 melanoma; 33 µM in the assay with UO-31 renal. Further, the values for the TGI with SNB-75 CNS, in the assay on HCT-116 colon and with SK-MEL-28 melanoma were 80.6 µM, above 100 µM and above 100 µM, respectively.

Consider `CCCCC#CC#Cc1cccc(=O)o1`, for which the GI50 in the assay on 786-0 renal is 16.6 µM; with HCT-15 colon it was 20.2 µM; in the assay on HOP-62 NSCLC it was 18.1 µM; with OVCAR-3 ovarian, 23.9 µM; in the assay on M14 melanoma, 21.7 µM; in the assay with NCI/ADR-RES ovarian, 17.2 µM. Further, the GI50 in the assay on UO-31 renal was 21.9 µM; with HCT-116 colon, 14.8 µM; in the assay with SK-MEL-28 melanoma, 14.4 µM. The TGI in the assay with 786-0 renal was 34.6 µM; with HCT-15 colon it was 39.5 µM; in the assay with HOP-62 NSCLC it was 34.4 µM; in the assay on OVCAR-3 ovarian, 69.6 µM; in the assay on M14 melanoma, 40.6 µM; with NCI/ADR-RES ovarian, 37.4 µM. For the same molecule, the TGI with UO-31 renal came out at 46.2 µM; in the assay on HCT-116 colon, 28.3 µM; in the assay on SK-MEL-28 melanoma, 29 µM.

Take `Cc1nc(N)sc1C(=O)Nc1cc(C(=O)NCCCN(C)C)n(C)c1`: the GI50 in the assay with 786-0 renal, in the assay on HCT-15 colon, in the assay with HOP-62 NSCLC, with OVCAR-3 ovarian, in the assay with NCI/ADR-RES ovarian and with UO-31 renal was above 100 µM in each case. Moreover, the GI50 was above 100 µM in the assay with SNB-75 CNS, above 100 µM with HCT-116 colon and 65.4 µM with SK-MEL-28 melanoma. The TGI in the assay on 786-0 renal, in the assay with HCT-15 colon, in the assay with HOP-62 NSCLC, in the assay on OVCAR-3 ovarian, with NCI/ADR-RES ovarian and with UO-31 renal was above 100 µM each time. In addition, the TGI with SNB-75 CNS, in the assay with HCT-116 colon and with SK-MEL-28 melanoma was above 100 µM each time.

Consider `CCOC(=O)NC(=O)c1cn(CCN2CCN(C(=O)CCCCCCCCCCNc3ncnc4nc[nH]c34)CC2)c(=O)[nH]c1=O`, for which the TGI in the assay on 786-0 renal, in the assay on HCT-15 colon, with HOP-62 NSCLC, in the assay with OVCAR-3 ovarian, with M14 melanoma and in the assay with UO-31 renal was above 100 µM each time. The TGI in the assay on SNB-75 CNS, in the assay with HCT-116 colon and in the assay with SK-MEL-28 melanoma was above 100 µM each time.

Take `COc1ccc(/C(=N/NC(N)=O)C(c2ccc(OC)cc2)C2C(=O)Oc3ccccc32)cc1` (stereo not drawn): the TGI with 786-0 renal, in the assay on HCT-15 colon, with HOP-62 NSCLC, in the assay on OVCAR-3 ovarian, in the assay with M14 melanoma and with UO-31 renal was above 100 µM each time. Moreover, the TGI with SNB-75 CNS, in the assay with HCT-116 colon and with SK-MEL-28 melanoma was above 100 µM each time.

With `O=C(NNC(=O)c1cc(/C=C/c2cccc([N+](=O)[O-])c2)[nH]c(=S)n1)Nc1ccc(Cl)cc1`, the TGI in the assay on 786-0 renal, with HCT-15 colon, in the assay on HOP-62 NSCLC, in the assay on OVCAR-3 ovarian, in the assay with M14 melanoma and in the assay on UO-31 renal was above 100 µM throughout. Moreover, the TGI in the assay on SNB-75 CNS was above 100 µM; with HCT-116 colon, 60.9 µM; in the assay on SK-MEL-28 melanoma, above 100 µM.
